# Columns and labels:
# [1] = test system: Botrytis spp. Strain resistant to TBZ; assay: In-vitro inhibition of growth on PDA Petri dishes; assay type: cell-based
# Procedure: (§1) The samples were added to the artificial media and gently mixed before solidification of the Agar solution.
# (§2) A small amount of fungal spores is placed in the centre of the potato dextrose agar (PDA) in the Petri dishes at 25°±1° C. for 5/6 days. At the end of the incubation period, we measure the inhibition of the halo that is formed in comparison with the untreated PDA Petri dishes (control).
# (§3) The results are indicated as a percentage of the incidence of the disease and the efficacy percentage of the products tested.
# [2] = test system: Pennicillum spp. Strain resistant to Imazalil; assay: In-vitro inhibition of growth on PDA Petri dishes; assay type: cell-based
# Procedure: as §1, §2, §3
# Pennicillum spp. = assay: In-vitro inhibition of growth on PDA Petri dishes; assay type: cell-based
# Procedure: as §1, §2, §3
# [3] = test system: strains of Penicillium expansum resistant to pyrimethanil; assay: Efficacy of compositions on Gala apples, FIG. 1; assay type: in vivo; settings: FIG. 1, "Gala" apples; over the doses shown
# Text: These compositions have been tested on various fungi or bacteria strains, such as illustrated in FIGS. 1 and 2. Unless otherwise indicated, the doses listed in the FIGS. 1 and 2 are given in ppm of active ingredient; the indications in ml/l refer to the quantity of composition C. […] Indeed it is observed that there is a synergistic effect between the fungicide and essential oils/terpene agents.
# [4] = test system: Monilinia fructicola Strain resistant to Pyrimethanil; assay: In-vitro inhibition of growth on PDA Petri dishes; assay type: cell-based; settings: dose not stated
# Procedure: as §1, §2, §3
structure (smiles),measurement,setting,value
Cc1ccc(C(C)C)cc1O [Carvacrol],Efficacy (%),[1]; Dose 100 ml/hl,100%
same,Incidence of Disease (%),[1]; Dose 100 ml/hl,0%
same,Efficacy (%),[1]; Dose 300 ml/hl,100%
same,Incidence of Disease (%),[1]; Dose 300 ml/hl,0%
same,Efficacy (%),[1]; Dose 500 ml/hl,100%
same,Incidence of Disease (%),[1]; Dose 500 ml/hl,0%
same,Efficacy (%),"[1]; Dose 1,000 ml/hl",100%
same,Incidence of Disease (%),"[1]; Dose 1,000 ml/hl",0%
same,control (in words),[1]; at all doses tested,total control
Cc1ccc(C(C)C)c(O)c1 [Thymol],Efficacy (%),[2]; Dose 100 ml/hl,70%
same,Incidence of Disease (%),[2]; Dose 100 ml/hl,30%
same,Efficacy (%),[2]; Dose 300 ml/hl,70%
same,Incidence of Disease (%),[2]; Dose 300 ml/hl,30%
same,Efficacy (%),[2]; Dose 500 ml/hl,80%
same,Incidence of Disease (%),[2]; Dose 500 ml/hl,20%
same,Efficacy (%),"[2]; Dose 1,000 ml/hl",90%
same,Incidence of Disease (%),"[2]; Dose 1,000 ml/hl",10%
same,Efficacy (%),Pennicillum spp.; Dose 100 ml/hl,20%
same,Incidence of Disease (%),Pennicillum spp.; Dose 100 ml/hl,80%
same,Efficacy (%),Pennicillum spp.; Dose 300 ml/hl,50%
same,Incidence of Disease (%),Pennicillum spp.; Dose 300 ml/hl,50%
same,Efficacy (%),Pennicillum spp.; Dose 500 ml/hl,70%
same,Incidence of Disease (%),Pennicillum spp.; Dose 500 ml/hl,30%
same,Efficacy (%),"Pennicillum spp.; Dose 1,000 ml/hl",70%
same,Incidence of Disease (%),"Pennicillum spp.; Dose 1,000 ml/hl",30%
Cc1cc(C)nc(Nc2ccccc2)n1 [pyrimethanil],efficacy,[3],at most 60%
same,efficacy,[4],45%

# Reference: patent US9706772B2, “Method for fungicidal and/or bactericidal treatment of resistant strains using essential oil(s)” (XEDA INTERNATIONAL, priority 2011, dated 2017)
